Values after ≈ are worked out from the molar mass of the structure shown.
Tests used:
[1] = test system: Hs27 (human foreskin fibroblast); assay: Cytotoxicity assay (MTT); format: cell-based; conditions: 24 h treatment
[2] = test system: T. gondii; conditions: values from the earlier paper; ref [25]; cited from earlier work
[3] = test system: T. gondii RH-GFP; assay: microbe, parasite or virus in culture; format: cell-based, Toxoplasma gondii; conditions: for IC50: Toxoplasma gondii, HS27, 96 h, read-out: IC50 (50% inhibition of T. gondii proliferation); for SI (selectivity index, CC30/IC50): ratio of CC30 (Hs27) to IC50 (T. gondii), 1b–12b and positive controls
Method: Cell and parasite culture: The Hs27 (human foreskin fibroblast) (ATCC® CRL-1634™) (ATCC, Manassas, VA, USA) were culturing in DMEM (Dulbecco’s modified Eagle’s medium-ATCC® 30-2002™, ATCC) supplemented with 10% fetal bovine serum (fetal bovine serum, ATCC® 30-2020™, ATCC), 100 I.U./mL penicillin and 100 μg/mL streptomycin (penicillin-streptomycin solution ATCC® 30-2300™, ATCC). Cells were trypsinized (Trypsin-EDTA Solution ATCC® 30-2101™, ATCC) twice a week and seeded at a density of 1 × 10^6 per T25 cell culture flask and incubated in a 37 °C and 5% CO2 to achieve a confluent monolayer. The RH strain of Toxoplasma gondii (RH-GFP ATCC® 50940™, ATCC, highly virulent, haplogroup first, expression of green fluorescent protein) was maintained as tachyzoites, in parasite culture medium, which contains DMEM medium with 3% HIFBS (heat-inactivated FBS; 1 h in 56 °C). Infected tissue culture cells were incubated in a 37 °C and 5% CO2.
After 72 h of incubation, the medium was removed and then 1 × 10^5 per well of tachyzoites of the RH strain were added to the cell monolayers, in DMEM without phenol red with 3% HIFBS. One hour later, the compounds and drugs dilutions in the DMEM without phenol red medium were added to the Hs27 cells with T. gondii. Concentration of the compounds below cytotoxic concentration (<CC30), sulfadiazine 0–10,000 μM and trimethoprim, pyrimethamine and atovaquone 0–200 μM. After a subsequent 96 h of incubation, the plates were read with covered lids, and both excitation (475 nm) and emission (509 nm) from the bottom using multimode microplate reader SpectraMax® i3. The results were expressed as mean fluorescent intensity (MFI) and transformed to the percentage of viability compared to untreated cells. Finally, the inhibitory concentrations for 50% inhibition of T. gondii proliferation (IC50) were calculated. All experiments were performed in triplicate.
Graphs and statistical analyses: Statistical analyses and graphs were performed using GraphPad Prism version 9.0.0 for macOS (GraphPad Software, San Diego, CA, USA). […] Additionally, a relationship between cytotoxicity and antiparasitic activity were calculated as the ratio of the 30% cytotoxic concentration (CC30) to the 50% antiparasitic concentration (IC50) and presented as the selectivity index (SI).

[4] = test system: tachyzoites of the RH-GFP strain; assay: Influence of compounds during Toxoplasma growth, Assay A (invasion); format: cell-based, Toxoplasma gondii; conditions: compound at IC50 present 3 h during infection, washed, 24 h free medium; vs non-treated
Method: (§1) Influence of Compounds during Toxoplasma Growth (Assay A and B): Hs27 cells were cultured on Lab-Tek™ 4-well Chamber Slides (Nunc, Thermo Fisher Scientific, Waltham, MA, USA) (5 × 10^4 cells/500 μL per well).
Assay A—after 48 h, the medium was removed and then 5 × 10^5/500 µL/well tachyzoites of the RH-GFP strain were added to the cell monolayers, in parasite culture medium with the selected compounds at IC50 concentration: 2b, 5b, 8b, 11b or 12b, for 3 h. Then, the cells were washed to remove extracellular parasites and parasite culture medium (without any compounds) was added for 24 h.
(§2) In both assays as the controls, Hs27 cells were infected, but not treated. After subsequent 24 h of incubation (Assay A and B), the slides were washed with sterile PBS, fixed with formaldehyde solution (252549, Sigma-Aldrich), 3.7% in PBS for 20 min and stained with DAPI for 10 min (1 mg/mL, ThermoFisher Scientific). Microscopic analysis of 100 cells in turn, comprised of counting the infected cell ratio and tachyzoites per each parasitophorous vacuoles of infected cell, was performed using a fluorescent microscope (Axio Scope.A1, Carl Zeiss, Jena, Germany) at a magnification ×1000. For image processing ZEISS ZEN Microscope Software version 3.1 was used. Three independent experiments on triplicate chamber slides using the same conditions for both assays were performed.

[5] = test system: tachyzoites of the RH-GFP strain; assay: Influence of compounds during Toxoplasma growth, Assay B (intracellular proliferation); format: cell-based, Toxoplasma gondii; conditions: 3 h infection without compound, washed, 24 h with compound at IC50
Method: as §1
Assay B—after 48 h, the medium was removed and then 5 × 10^5/500 µL/well tachyzoites of the RH-GFP strain were added to the cell monolayers, in parasite culture medium for 3 h.
as §2

| Structure (SMILES) | CC30 (cytotoxic concentration causing 30% of cells proliferation inhibition) [1] [µg/mL] | IC50 (50% inhibition of T. gondii proliferation) [2] [µg/mL] | IC50 [3] [µg/mL] | SI (selectivity index, CC30/IC50) [3] | number of tachyzoites per vacuole (Assay A) [4] | percentage of infected cells (Assay A) [4] | number of intravacuolar tachyzoites (Assay B) [5] | percentage of infected cells (Assay B) [5] | size of parasitophorous vacuole (Assay B) [5] |
| --- | --- | --- | --- | --- | --- | --- | --- | --- | --- |
| Cc1nc[nH]c1C(=O)NNC(=S)Nc1ccccc1F [1a] | 289.60 | 68.83 |  |  |  |  |  |  |  |
| Cc1nc[nH]c1-c1nnc(Nc2ccccc2F)s1 [1b] | 157.71 |  | 26.2 (≈ 95.1 µM) |  |  |  |  |  |  |
| Cc1nc[nH]c1C(=O)NNC(=S)Nc1cccc(F)c1 [2a] | 125.17 | 113.45 |  |  |  |  |  |  |  |
| Cc1nc[nH]c1-c1nnc(Nc2cccc(F)c2)s1 [2b] | 18.96 |  | 7.04 (≈ 25.6 µM) | 2.69 | significant reductions | significant reductions | significant reduction | still the same | significant reduction |
| Cc1nc[nH]c1C(=O)NNC(=S)Nc1ccc(F)cc1 [3a] | 266.20 | 110.31 |  |  |  |  |  |  |  |
| Cc1nc[nH]c1-c1nnc(Nc2ccc(F)cc2)s1 [3b] | 26.17 |  | 11.4 (≈ 41.5 µM) | 2.29 |  |  |  |  |  |
| Cc1nc[nH]c1C(=O)NNC(=S)Nc1ccccc1Cl [4a] | 143.15 | 35.61 |  |  |  |  |  |  |  |
| Cc1nc[nH]c1-c1nnc(Nc2ccccc2Cl)s1 [4b] | 24.69 |  | 12.4 (≈ 42.4 µM) | 2.00 |  |  |  |  |  |
| Cc1nc[nH]c1C(=O)NNC(=S)Nc1cccc(Cl)c1 [5a] | 96.78 | 24.15 |  |  |  |  |  |  |  |
| Cc1nc[nH]c1-c1nnc(Nc2cccc(Cl)c2)s1 [5b] | 17.88 |  | 3.65 (≈ 12.5 µM) | 4.90 | significant reductions | significant reductions | significant reduction | still the same | significant reduction |
| Cc1nc[nH]c1C(=O)NNC(=S)Nc1ccc(Cl)cc1 [6a] | 94.12 | 73.37 |  |  |  |  |  |  |  |
| Cc1nc[nH]c1-c1nnc(Nc2ccc(Cl)cc2)s1 [6b] | 45.97 |  | 8.36 (≈ 28.7 µM) | 5.50 |  |  |  |  |  |
| Cc1nc[nH]c1C(=O)NNC(=S)Nc1ccccc1Br [7a] | 205.31 | 27.65 |  |  |  |  |  |  |  |
| Cc1nc[nH]c1-c1nnc(Nc2ccccc2Br)s1 [7b] | 29.71 |  | 8.77 (≈ 26.1 µM) | 3.39 |  |  |  |  |  |
| Cc1nc[nH]c1C(=O)NNC(=S)Nc1cccc(Br)c1 [8a] | 96.12 | 15.64 |  |  |  |  |  |  |  |
| Cc1nc[nH]c1-c1nnc(Nc2cccc(Br)c2)s1 [8b] | 20.55 |  | 3.83 (≈ 11.4 µM) | 5.37 | significant reductions | significant reductions | significant reduction | still the same | significant reduction |
| Cc1nc[nH]c1C(=O)NNC(=S)Nc1ccc(Br)cc1 [9a] | 48.89 | 14.57 |  |  |  |  |  |  |  |
| Cc1nc[nH]c1-c1nnc(Nc2ccc(Br)cc2)s1 [9b] | 21.52 |  | 5.41 (≈ 16.1 µM) | 3.98 |  |  |  |  |  |
| Cc1nc[nH]c1C(=O)NNC(=S)Nc1ccccc1I [10a] | 101.58 | 20.31 |  |  |  |  |  |  |  |
| Cc1nc[nH]c1-c1nnc(Nc2ccccc2I)s1 [10b] | 89.54 |  | 11 (≈ 28.8 µM) | 8.13 |  |  |  |  |  |
| Cc1nc[nH]c1C(=O)NNC(=S)Nc1cccc(I)c1 [11a] | 85.57 | 10.30 |  |  |  |  |  |  |  |
| Cc1nc[nH]c1-c1nnc(Nc2cccc(I)c2)s1 [11b] | 36.48 |  | 4.49 (≈ 11.7 µM) | 8.13 | significant reductions | significant reductions | significant reduction | still the same | significant reduction |
| Cc1nc[nH]c1C(=O)NNC(=S)Nc1ccc(I)cc1 [12a] | 71.58 | 22.01 |  |  |  |  |  |  |  |

Reference: PMC8145641 (Cells, 2021)
